{
  "source": "patent US20180311217A1",
  "about": "“METHODS OF TREATMENT AND COMPOSITIONS WITH XANTHINE OXIDASE INHIBITORS” (Takeda Pharmaceuticals U.S.A., Inc., priority 2013, published 2018)",
  "key": {"[1]": {"assay": "Study TMX-99-001: febuxostat plasma pharmacokinetics", "type": "in vivo, human", "design": "AUC24/Dose: unit not given here", "conditions": "mean; for Cmin: terminal phase at or before 24 hours; for MRT inf / AUC / partial AUC from 0 to 4 hours: human, plasma, oral; for partial AUC from 0 to 4 hours: read-out: AUC0-4"}, "[2]": {"conditions": "oral administration; cited from earlier work"}},
  "note": "Where two headings read alike, the source gives them in different places.",
  "data": [
    {"smiles": "Cc1nc(-c2ccc(OCC(C)C)c(C#N)c2)sc1C(=O)O", "note": "[Febuxostat, 2-[3-cyano-4-(2-methylpropoxy)phenyl]-4-methylthiazole-5-carboxylic acid]", "values": [
      {"measurement": "Cmin", "setting": "[1]; IR 50 mg single dose", "result": 15.98, "unit": "ng/mL"},
      {"measurement": "AUC24", "setting": "[1]; IR 70 mg single dose", "result": 6948.21, "unit": "ng·h/mL"},
      {"measurement": "AUC24/Dose", "setting": "[1]; IR 70 mg single dose", "result": 99.26},
      {"measurement": "Cmax", "setting": "[1]; IR 70 mg single dose", "result": 2689.91, "unit": "ng/mL"},
      {"measurement": "Cmax/dose", "setting": "[1]; IR 70 mg single dose", "result": 38.43, "unit": "ng/mL/mg"},
      {"measurement": "Tmax", "setting": "[1]; IR 70 mg single dose", "result": 1.10, "unit": "h"},
      {"measurement": "Tmin", "setting": "[1]; IR 70 mg single dose", "result": 23.20, "unit": "h"},
      {"measurement": "Cmin", "setting": "[1]; IR 70 mg single dose", "result": 23.81, "unit": "ng/mL"},
      {"measurement": "AUC0-4", "setting": "[1]; IR 90 mg single dose", "result": 6893.00, "unit": "ng·h/mL"},
      {"measurement": "AUC24/Dose", "setting": "[1]; IR 90 mg single dose", "result": 104.36},
      {"measurement": "Cmax", "setting": "[1]; IR 90 mg single dose", "result": 4061.63, "unit": "ng/mL"},
      {"measurement": "Cmax/dose", "setting": "[1]; IR 90 mg single dose", "result": 45.13, "unit": "ng/mL/mg"},
      {"measurement": "Tmin", "setting": "[1]; IR 90 mg single dose", "result": 24.00, "unit": "h"},
      {"measurement": "Cmin", "setting": "[1]; IR 90 mg single dose", "result": 27.53, "unit": "ng/mL"},
      {"measurement": "AUC24", "setting": "[1]; IR 120 mg single dose", "result": 11959.93, "unit": "ng·h/mL"},
      {"measurement": "AUC24/Dose", "setting": "[1]; IR 120 mg single dose", "result": 99.67},
      {"measurement": "Cmax", "setting": "[1]; IR 120 mg single dose", "result": 5307.58, "unit": "ng/mL"},
      {"measurement": "Cmax/dose", "setting": "[1]; IR 120 mg single dose", "result": 44.23, "unit": "ng/mL/mg"},
      {"measurement": "Tmax", "setting": "[1]; IR 120 mg single dose", "result": 1.11, "unit": "h"},
      {"measurement": "Tmin", "setting": "[1]; IR 120 mg single dose", "result": 24.00, "unit": "h"},
      {"measurement": "Cmin", "setting": "[1]; IR 120 mg single dose", "result": 41.49, "unit": "ng/mL"},
      {"measurement": "AUC24", "setting": "[1]; IR 160 mg single dose", "result": 22282.12, "unit": "ng·h/mL"},
      {"measurement": "AUC24/Dose", "setting": "[1]; IR 160 mg single dose", "result": 139.26},
      {"measurement": "Cmax", "setting": "[1]; IR 160 mg single dose", "result": 8771.07, "unit": "ng/mL"},
      {"measurement": "Cmax/dose", "setting": "[1]; IR 160 mg single dose", "result": 54.82, "unit": "ng/mL/mg"},
      {"measurement": "Tmax", "setting": "[1]; IR 160 mg single dose", "result": 0.80, "unit": "h"},
      {"measurement": "Tmin", "setting": "[1]; IR 160 mg single dose", "result": 22.80, "unit": "h"},
      {"measurement": "Cmin", "setting": "[1]; IR 160 mg single dose", "result": 79.88, "unit": "ng/mL"},
      {"measurement": "AUC24", "setting": "[1]; IR 180 mg single dose", "result": 23954.54, "unit": "ng·h/mL"},
      {"measurement": "AUC24/Dose", "setting": "[1]; IR 180 mg single dose", "result": 133.08},
      {"measurement": "Cmax", "setting": "[1]; IR 180 mg single dose", "result": 8048.76, "unit": "ng/mL"},
      {"measurement": "Cmax/dose", "setting": "[1]; IR 180 mg single dose", "result": 44.72, "unit": "ng/mL/mg"},
      {"measurement": "Tmin", "setting": "[1]; IR 180 mg single dose", "result": 24.00, "unit": "h"},
      {"measurement": "Cmin", "setting": "[1]; IR 180 mg single dose", "result": 75.73, "unit": "ng/mL"},
      {"measurement": "AUC24", "setting": "[1]; IR 240 mg single dose", "result": 34976.26, "unit": "ng·h/mL"},
      {"measurement": "AUC24/Dose", "setting": "[1]; IR 240 mg single dose", "result": 145.73},
      {"measurement": "Cmax", "setting": "[1]; IR 240 mg single dose", "result": 11263.03, "unit": "ng/mL"},
      {"measurement": "Cmax/dose", "setting": "[1]; IR 240 mg single dose", "result": 46.93, "unit": "ng/mL/mg"},
      {"measurement": "Tmax", "setting": "[1]; IR 240 mg single dose", "result": 0.94, "unit": "h"},
      {"measurement": "Tmin", "setting": "[1]; IR 240 mg single dose", "result": 24.00, "unit": "h"},
      {"measurement": "Cmin", "setting": "[1]; IR 240 mg single dose", "result": 71.30, "unit": "ng/mL"},
      {"measurement": "MRT inf", "setting": "[1]; 30 mg, IR 30 mg BID", "result": 18.6, "unit": "h"},
      {"measurement": "AUC", "setting": "[1]; 30 mg, IR 30 mg BID, following AM and PM dose, read-out: AUC4-24", "result": 3980, "unit": "ng·h/mL"},
      {"measurement": "AUC", "setting": "[1]; 30 mg, IR 30 mg BID, following AM and PM dose, read-out: AUC24", "result": 6220, "unit": "ng·h/mL"},
      {"measurement": "partial AUC from 0 to 4 hours", "setting": "[1]; 30 mg, IR 30 mg BID, following AM dose", "result": 2240, "unit": "ng·h/mL"},
      {"measurement": "MRT inf", "setting": "[1]; 30 mg, IR 30 mg single dose", "result": 4.99, "unit": "h"},
      {"measurement": "partial AUC from 0 to 4 hours", "setting": "[1]; 30 mg, IR 30 mg single dose", "result": 1900, "unit": "ng·h/mL"},
      {"measurement": "AUC", "setting": "[1]; 30 mg, IR 30 mg single dose, read-out: AUC4-24", "result": 629, "unit": "ng·h/mL"},
      {"measurement": "AUC", "setting": "[1]; 30 mg, IR 30 mg single dose, read-out: AUC24", "result": 2520, "unit": "ng·h/mL"},
      {"measurement": "MRT inf", "setting": "[1]; 40 mg, IR 40 mg single dose", "result": 4.54, "unit": "h"},
      {"measurement": "partial AUC from 0 to 4 hours", "setting": "[1]; 40 mg, IR 40 mg single dose", "result": 3350, "unit": "ng·h/mL"},
      {"measurement": "MRT inf", "setting": "[1]; 50 mg, IR 50 mg single dose", "result": 5, "unit": "h"},
      {"measurement": "AUC", "setting": "[1]; 50 mg, IR 50 mg single dose, read-out: AUC4-24", "result": 1260, "unit": "ng·h/mL"},
      {"measurement": "MRT inf", "setting": "[1]; 70 mg, IR 70 mg single dose", "result": 5, "unit": "h"},
      {"measurement": "partial AUC from 0 to 4 hours", "setting": "[1]; 70 mg, IR 70 mg single dose", "result": 5280, "unit": "ng·h/mL"},
      {"measurement": "AUC", "setting": "[1]; 70 mg, IR 70 mg single dose, read-out: AUC4-24", "result": 1670, "unit": "ng·h/mL"},
      {"measurement": "MRT inf", "setting": "[1]; 90 mg, IR 90 mg single dose", "result": 5.81, "unit": "h"},
      {"measurement": "AUC", "setting": "[1]; 90 mg, IR 90 mg single dose, read-out: AUC4-24", "result": 2500, "unit": "ng·h/mL"},
      {"measurement": "AUC", "setting": "[1]; 90 mg, IR 90 mg single dose, read-out: AUC24", "result": 9390, "unit": "ng·h/mL"},
      {"measurement": "MRT inf", "setting": "[1]; 120 mg, IR 120 mg single dose", "result": 5.43, "unit": "h"},
      {"measurement": "partial AUC from 0 to 4 hours", "setting": "[1]; 120 mg, IR 120 mg single dose", "result": 8590, "unit": "ng·h/mL"},
      {"measurement": "AUC", "setting": "[1]; 120 mg, IR 120 mg single dose, read-out: AUC4-24", "result": 3370, "unit": "ng·h/mL"},
      {"measurement": "MRT inf", "setting": "[1]; 160 mg, IR 160 mg single dose", "result": 4.65, "unit": "h"},
      {"measurement": "partial AUC from 0 to 4 hours", "setting": "[1]; 160 mg, IR 160 mg single dose", "result": 16400, "unit": "ng·h/mL"},
      {"measurement": "AUC", "setting": "[1]; 160 mg, IR 160 mg single dose, read-out: AUC4-24", "result": 5840, "unit": "ng·h/mL"},
      {"measurement": "MRT inf", "setting": "[1]; 180 mg, IR 180 mg single dose", "result": 5.53, "unit": "h"},
      {"measurement": "partial AUC from 0 to 4 hours", "setting": "[1]; 180 mg, IR 180 mg single dose", "result": 16800, "unit": "ng·h/mL"},
      {"measurement": "AUC", "setting": "[1]; 180 mg, IR 180 mg single dose, read-out: AUC4-24", "result": 7150, "unit": "ng·h/mL"},
      {"measurement": "MRT inf", "setting": "[1]; 240 mg, IR 240 mg single dose", "result": 4.32, "unit": "h"},
      {"measurement": "partial AUC from 0 to 4 hours", "setting": "[1]; 240 mg, IR 240 mg single dose", "result": 25100, "unit": "ng·h/mL"},
      {"measurement": "AUC", "setting": "[1]; 240 mg, IR 240 mg single dose, read-out: AUC4-24", "result": 9900, "unit": "ng·h/mL"},
      {"measurement": "orally administered febuxostat eliminated in the urine as unchanged drug", "setting": "[2]", "result": "< 4", "unit": "%"}
    ]}
  ]
}
